# Patent US5856336A, “Quinoline type mevalonolactones” (Nissan Chemical Industries Ltd., priority 1987, dated 1999)
# Structures can show the parent of a compound that is named as a salt.
# Test system: cholesterol biosynthesis from acetate (liver microsome and sup fraction)
# Assay: Test A: Inhibition of cholesterol biosynthesis from acetate in vitro
# Format: biochemical, male Wistar rat
# Settings: for Relative activities by Test A: relative to CS-514 being evaluated to be 1
# Procedure: Test A: Inhibition of cholesterol biosynthesis from acetate in vitro
# Enzyme solution was prepared from liver of male Wistar rat billialy cannulated and discharged bile for over 24 hours. Liver was cut out at mid-dark and microsome and supernatant fraction which was precipitable with 40-80% of saturation of ammonium sulfate (sup fraction) were prepared from liver homogenate according to the modified method of Knauss et. al.; Kuroda, M., et. al., Biochim. Biophys. Acta, 489, 119 (1977). For assay of cholesterol biosynthesis, microsome (0.1 mg protein) and sup fraction (1.0 mg protein) were incubated for 2 hours at 37° C. in 200 μl of the reaction mixture containing ATP; 1 mM, Glutathione; 6 mM, Glucose-1-phosphate; 10 mM, NAD; 0.25 mM, NADP; 0.25 mM, CoA; 0.04 mM and 0.2 mM [2-^14 C]sodium acetate (0.2 μCi) with 4 μl of test compound solution dissolved in water or dimethyl sulfoxide. To stop reaction and saponify, 1 ml of 15% EtOH-KOH was added to the reactions and heated at 75° C. for 1 hour. […] Inhibitory activity of compounds was indicated with IC50.
SMILES,Relative activities by Test A,"IC50 (Test A, rat liver microsome + sup fraction, [2-14C]sodium acetate, 2 hours at 37° C., read-out: I50 (inhibitory activities by Test A)) [nM]"
CC(C)c1nc2c(Cl)cc(Cl)cc2c(-c2ccc(F)cc2)c1/C=C/C(O)CC(O)CC(=O)O (stereo not drawn) [I-522],0.76,
CCOC(=O)CC(O)CC(O)/C=C/c1c(CC)nc2ccccc2c1-c1ccc(F)cc1 (stereo not drawn) [I-117],0.37,
"CC(C)c1nc2ccccc2c(-c2ccc(F)cc2)c1/C=C/C(O)CC(O)CC(=O)O (stereo not drawn) [I-51, Sodium salt of (E)-3,5-dihydroxy-7-[4'-(4""-fluorophenyl)-2'-(1""-methylethyl)-quinolin-3 '-yl]-hept-6-enoic acid]",,10
